Toxic doses and inconclusive results are not listed. Non-standard residues stand in square brackets, D forms with d. Residues, ends and D or L forms follow the SMILES beside them. ξ: configuration not given here. *: point of attachment. ξF = NC(Cc1ccccc1)C(=O)O; ClAc = O=C(CCl)*

The source of these data is PubChem BioAssay AID328 (DTP/NCI, 2004).

In this assay the test system is BDF1 mice, P388 leukemia ip, median survival T/C. Kind of assay: NCI In Vivo Anticancer Drug Screen. Data for tumor model P388 Leukemia (intraperitoneal) in B6D2F1 (BDF1) mice. The note with it: endpoint: median survival time, higher = longer survival. The method in brief:
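T/C = treated-group survival ÷ vehicle-control survival; tumour transplanted into mice before dosing.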

[1] abbreviates: dose: 25.0 mg/kg/injection, schedule: Q04DX003 (ip), vehicle: saline with Tween-80.
Where [2] appears, read: dose: 100.0 mg/kg/injection, schedule: Q01DX009 (ip), vehicle: Klucel (hydroxypropylcellulose) (HPC).
[3] abbreviates: dose: 100.0 mg/kg/injection, schedule: Q04DX003 (ip), vehicle: Klucel (hydroxypropylcellulose) (HPC).
Where [4] appears, read: dose: 200.0 mg/kg/injection, schedule: Q01DX009 (ip), vehicle: Klucel (hydroxypropylcellulose) (HPC).
[5] abbreviates: dose: 200.0 mg/kg/injection, schedule: Q04DX003 (ip), vehicle: Klucel (hydroxypropylcellulose) (HPC).
Where [6] appears, read: dose: 400.0 mg/kg/injection, schedule: Q04DX003 (ip), vehicle: Klucel (hydroxypropylcellulose) (HPC).
[7] abbreviates: dose: 100.0 mg/kg/injection, schedule: Q01DX009 (ip), vehicle: saline with Tween-80.
Setting [8] is: dose: 100.0 mg/kg/injection, schedule: Q04DX003 (ip), vehicle: saline with Tween-80.
The mark [9] stands for this setting: dose: 200.0 mg/kg/injection, schedule: Q04DX003 (ip), vehicle: saline with Tween-80.
Where [10] appears, read: dose: 400.0 mg/kg/injection, schedule: Q04DX003 (ip), vehicle: saline with Tween-80.
Setting [11] is: dose: 50.0 mg/kg/injection, schedule: Q01DX009 (ip), vehicle: saline with Tween-80.
The mark [12] stands for this setting: dose: 25.0 mg/kg/injection, schedule: Q01DX009 (ip), vehicle: saline with Tween-80.
[13] abbreviates: dose: 12.5 mg/kg/injection, schedule: Q01DX009 (ip), vehicle: saline with Tween-80.
Setting [14] is: dose: 50.0 mg/kg/injection, schedule: Q04DX003 (ip), vehicle: saline with Tween-80.

For `Cc1[nH]c(=O)[nH]c(=O)c1N(CCF)CCCl`, the T/C by setting is: (dose: 5.0 mg/kg/injection, schedule: Q01DX009 (ip), vehicle: Klucel (hydroxypropylcellulose) (HPC)) 150 % of control; (dose: 10.0 mg/kg/injection, schedule: Q01DX009 (ip), vehicle: Klucel (hydroxypropylcellulose) (HPC)) 172 % of control; (dose: 10.0 mg/kg/injection, schedule: Q01DX009 (ip), vehicle: saline) 162 % of control; (dose: 16.5 mg/kg/injection, schedule: Q04DX003 (ip), vehicle: saline with Tween-80) 168 % of control; under setting [1], 204 % of control; (dose: 37.5 mg/kg/injection, schedule: Q04DX003 (ip), vehicle: saline with Tween-80) 200 % of control.

`C[C@]12CCC(=O)C=C1CC[C@@H]1[C@@H]2C(=O)C[C@@]2(C)[C@H]1CC[C@]2(O)C(=O)CO`: the T/C runs as follows: under setting [2], 108 % of control; under setting [3], 110 % of control; under setting [4], 108 % of control; under setting [5], 115 % of control; (dose: 400.0 mg/kg/injection, schedule: Q01DX009 (ip), vehicle: Klucel (hydroxypropylcellulose) (HPC)) 87 % of control; under setting [6], 110 % of control.

On to `O=C(Nc1ccc(Cl)cc1)c1ccccc1`, for which the T/C by setting is: (dose: 50.0 mg/kg/injection, schedule: Q01DX009 (ip), vehicle: Klucel (hydroxypropylcellulose) (HPC)) 122 % of control; (dose: 50.0 mg/kg/injection, schedule: Q04DX003 (ip), vehicle: Klucel (hydroxypropylcellulose) (HPC)) 95 % of control; under setting [2], 95 % of control; under setting [3], 91 % of control; under setting [4], 90 % of control; under setting [5], 100 % of control.

`O=C([CH-]C(=O)C(F)(F)F)c1ccccc1.O=C([CH-]C(=O)C(F)(F)F)c1ccccc1.O=C([CH-]C(=O)C(F)(F)F)c1ccccc1.O=C([CH-]C(=O)C(F)(F)F)c1ccccc1.[Eu+3].c1ccncc1`: under setting [2], the T/C was 113 % of control.

Turning to `CCCCCCC(C)NN` (stereo unspecified), the T/C (dose: 12.5 mg/kg/injection, schedule: Q04DX003 (ip), vehicle: saline) was 98 % of control; the T/C (dose: 25.0 mg/kg/injection, schedule: Q04DX003 (ip), vehicle: saline) was 105 % of control; the T/C (dose: 50.0 mg/kg/injection, schedule: Q04DX003 (ip), vehicle: saline) was 107 % of control.

In the case of `COc1cc(/C=N/NC(=O)c2ccccc2)cc(OC)c1OC`, the T/C under setting [7] is 95 % of control; the T/C under setting [8] is 109 % of control; the T/C (dose: 200.0 mg/kg/injection, schedule: Q01DX009 (ip), vehicle: saline with Tween-80) was 100 % of control; the T/C under setting [9] was 104 % of control; the T/C (dose: 400.0 mg/kg/injection, schedule: Q01DX009 (ip), vehicle: saline with Tween-80) is 95 % of control; the T/C under setting [10] was 90 % of control.

Consider `Cc1cc2nc3n(c2cc1C)C(C)(C)N=C(N)N3`, for which the T/C is, setting by setting: under setting [11], 102 % of control; under setting [7], 112 % of control.

With `O=[N+]([O-])c1ccc(NS(=O)(=O)c2ccc(Cl)c(Cl)c2Cl)c([N+](=O)[O-])c1`, the T/C under setting [12] was 96 % of control, the T/C under setting [11] is 105 % of control and the T/C under setting [7] is 102 % of control.

In the case of `CCC(C(OC(=O)Nc1ccc(Cl)c(Cl)c1)c1ccc(Cl)cc1)C(O)(C(F)(F)F)C(F)(F)F` (stereo unspecified), the T/C runs as follows: under setting [3], 100 % of control; under setting [5], 95 % of control; under setting [6], 91 % of control.

With `CC(=O)Nc1cc(C)ccc1O`, the T/C was 100 % of control under setting [8], 104 % of control under setting [9] and 90 % of control under setting [10].

`S=P(Oc1ccccc1)(N1CC1)N1CC1`: the T/C reads like this: (dose: 100.0 mg/kg/injection, schedule: Q01DX007 (ip), vehicle: DMSO) 88 % of control; under setting [3], 100 % of control; under setting [5], 108 % of control; under setting [6], 100 % of control.

For `O=C(Nc1ccccc1F)Nc1cccc2ccccc12`, the T/C is 100 % of control (dose: 100.0 mg/kg/injection, schedule: Q01DX001 (ip), vehicle: saline with Tween-80); 100 % of control (dose: 200.0 mg/kg/injection, schedule: Q01DX001 (ip), vehicle: saline with Tween-80); 90 % of control (dose: 400.0 mg/kg/injection, schedule: Q01DX001 (ip), vehicle: saline with Tween-80).

As to `O=C1NC(c2cccs2)(c2cccs2)C(=O)N1Cl`, the T/C by setting is: (dose: 6.25 mg/kg/injection, schedule: Q01DX009 (ip), vehicle: water) 94 % of control; (dose: 6.25 mg/kg/injection, schedule: Q04DX003 (ip), vehicle: water) 97 % of control; (dose: 12.5 mg/kg/injection, schedule: Q01DX009 (ip), vehicle: water) 104 % of control; (dose: 12.5 mg/kg/injection, schedule: Q04DX003 (ip), vehicle: water) 97 % of control; (dose: 25.0 mg/kg/injection, schedule: Q01DX009 (ip), vehicle: water) 103 % of control; (dose: 25.0 mg/kg/injection, schedule: Q04DX003 (ip), vehicle: water) 97 % of control. For the same compound, the T/C by setting is: (dose: 50.0 mg/kg/injection, schedule: Q01DX009 (ip), vehicle: water) 116 % of control; (dose: 50.0 mg/kg/injection, schedule: Q04DX003 (ip), vehicle: water) 95 % of control; (dose: 100.0 mg/kg/injection, schedule: Q04DX003 (ip), vehicle: water) 95 % of control; (dose: 200.0 mg/kg/injection, schedule: Q04DX003 (ip), vehicle: water) 88 % of control.

In the case of `O=C1C(Br)=C(Br)C(=O)C1(Br)Br`, the T/C (dose: 8.25 mg/kg/injection, schedule: Q01DX009 (ip), vehicle: saline with Tween-80) was 100 % of control; the T/C under setting [13] is 109 % of control; the T/C (dose: 18.75 mg/kg/injection, schedule: Q01DX009 (ip), vehicle: saline with Tween-80) is 113 % of control.

With `Cc1nc([N+](=O)[O-])cn1CC/C(N)=N/O`, the T/C reads like this: under setting [8], 108 % of control; under setting [9], 105 % of control; under setting [10], 115 % of control.

On to `CC1CCCN2C(=O)CN(N3CCOCC3)CC(=O)N12` (stereo unspecified), for which, where the note is “dose: 100.0 mg/kg/injection, schedule: Q04DX002 (ip), vehicle: saline with Tween-80”, the T/C is 121 % of control.

Turning to `O=[N+]([O-])/C=C/c1cccc(F)c1`, the T/C by setting is: (dose: 12.5 mg/kg/injection, schedule: Q04DX003 (ip), vehicle: saline with Tween-80) 107 % of control; under setting [1], 98 % of control; under setting [14], 93 % of control; under setting [8], 87 % of control.

In the case of `COc1cc(OC)cc(-c2n[se]c(-c3cc(OC)cc(OC)c3)n2)c1`, the T/C (dose: 0.19 mg/kg/injection, schedule: Q01DX009 (ip), vehicle: saline with Tween-80) is 114 % of control; the T/C (dose: 0.39 mg/kg/injection, schedule: Q01DX009 (ip), vehicle: saline with Tween-80) was 98 % of control; the T/C (dose: 0.78 mg/kg/injection, schedule: Q01DX009 (ip), vehicle: saline with Tween-80) was 104 % of control; the T/C (dose: 1.56 mg/kg/injection, schedule: Q01DX009 (ip), vehicle: saline with Tween-80) is 107 % of control.

With `Cc1cc(Cl)n[nH]1`, the T/C under setting [12] was 98 % of control.

Turning to `O=C(CCl)NCC(=O)NC(Cc1ccccc1)C(=O)O` (stereo unspecified) (ClAc-Gly-[ξF]-OH), the T/C is 109 % of control under setting [14], 109 % of control under setting [8] and 90 % of control under setting [9].

Take `CCC(C)NC(=S)NN` (stereo unspecified): the T/C runs as follows: (dose: 10.0 mg/kg/injection, schedule: Q01DX009 (ip), vehicle: saline with Tween-80) 95 % of control; (dose: 20.0 mg/kg/injection, schedule: Q01DX009 (ip), vehicle: saline with Tween-80) 100 % of control; (dose: 40.0 mg/kg/injection, schedule: Q01DX009 (ip), vehicle: saline with Tween-80) 95 % of control.

For the compound `CCCCCCCCC[N+]12CC[N+](CCCCCCCCC)(CC1)CC2`, the T/C is 101 % of control (dose: 3.13 mg/kg/injection, schedule: Q01DX009 (ip), vehicle: saline); 97 % of control (dose: 6.25 mg/kg/injection, schedule: Q01DX009 (ip), vehicle: saline); 98 % of control (dose: 12.5 mg/kg/injection, schedule: Q01DX009 (ip), vehicle: saline).

Consider `Cc1nc(N)c(N)nc1C`, for which the T/C by setting is: under setting [13], 95 % of control; under setting [12], 88 % of control; under setting [1], 102 % of control; under setting [11], 107 % of control; under setting [14], 101 % of control.
